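In this assay, cells in 96-well plates receive the compound at five concentrations for 48 hours. Endpoints are linearly interpolated between the surrounding concentrations. GI50 marks 50% less growth. TGI is the concentration that stops growth completely.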
Columns and labels:
Assay in all cases: NCI anticancer screen, dose series, 48 h
HCT-116 colon = system: HCT-116 colon
HOP-92 NSCLC = system: HOP-92 NSCLC
KM12 colon = system: KM12 colon
MCF7 breast = system: MCF7 breast
PC-3 prostate = system: PC-3 prostate
RPMI-8226 leukemia = system: RPMI-8226 leukemia
SF-539 CNS = system: SF-539 CNS
SK-MEL-2 melanoma = system: SK-MEL-2 melanoma
SNB-75 CNS = system: SNB-75 CNS
UO-31 renal = system: UO-31 renal

Compound	TGI (HCT-116 colon) [µM]	TGI (HOP-92 NSCLC) [µM]	TGI (KM12 colon) [µM]	TGI (MCF7 breast) [µM]	TGI (PC-3 prostate) [µM]	TGI (RPMI-8226 leukemia) [µM]	TGI (SF-539 CNS) [µM]	TGI (SK-MEL-2 melanoma) [µM]	TGI (SNB-75 CNS) [µM]	TGI (UO-31 renal) [µM]	GI50 (HCT-116 colon) [µM]	GI50 (SF-539 CNS) [µM]
O=C1N2CCC[C@H]2CS1(=O)=O	28.1	25.7	30.8	21.8	31.4	10.8	> 100	34.4	41.2	28.5	–	–
S=C1C(=Nc2ccccc2)N(c2ccccc2)/C(=N\c2cccc[n+]2Cc2ccccc2)N1c1ccccc1	23.9	41.9	32	42.8	29.9	87.2	34	55.8	25.5	42.8	–	–
COc1c(C)c(C/C=C(\C)CCCC(C)CCCC(C)CCCC(C)C)c(OC)c2ccccc12 (configuration not stated)	> 100	> 100	> 100	> 100	> 100	> 100	> 100	> 100	> 100	> 100	–	–
Cn1c2ccc(Cl)cc2c2ccc3c(c21)C(=O)C=CC3=O	> 10	> 10	> 10	> 10	> 10	> 10	> 10	> 10	> 10	–	–	–
COc1cc2c3c(n(C)c(=O)c2cc1OC)-c1cc2c(cc1/C3=C\CCCCCBr)OCO2	44.7	38.7	> 100	> 100	> 100	26	89.8	> 100	43	47.8	6.14	5.7
CC(OP(=O)(O)O)C(N)C(=O)O (configuration not stated)	> 100	> 100	> 100	> 100	> 100	> 100	> 100	> 100	> 100	> 100	–	–
O=c1[nH]cc(N=Cc2cc(Cl)ccc2O)c(=O)[nH]1	> 100	89.8	> 100	> 100	> 100	53.3	7.43	64.5	–	> 100	–	–
COc1ccc(OC)c2c(C)ccnc12	> 100	90.8	> 100	> 100	> 100	> 100	> 68.7	> 100	> 100	74.3	–	–
Cc1ccc(S(=O)(=O)OCCC2CN(C(=O)OCc3ccccc3)C(C)(C)O2)cc1 (configuration not stated)	> 100	> 100	12.4	33.7	50	32.4	> 100	94.5	–	15.4	–	–
Cc1ccc(N=C/C=C(\Nc2ccc(C)cc2)c2ccc3ccccc3c2)cc1	2.99	27.6	4.43	16.5	18	2.56	3.45	11.2	6.16	13.1	–	–
Cc1cc(N2CCCCC2)nc2ccc(Cc3ccc4nc(N5CCCCC5)cc(C)c4c3)cc12	> 100	> 100	> 100	> 100	> 100	> 100	> 100	> 100	> 100	> 100	–	–
O=c1cc(N2CCOCC2)n2c(ccc3ccccc32)n1	> 100	> 100	> 100	> 100	> 100	> 100	> 100	> 100	> 100	> 100	–	–
CC(C)OP(=O)(OC(C)C)C(C(C)C)N(C)C(N)=NC#N (configuration not stated)	> 100	> 100	> 100	> 100	> 100	> 100	> 100	> 100	> 100	> 100	–	–
CCCC1=C(OC)C(=O)c2c(C)cc(Cl)nc2C1=O	7.26	11.3	18.1	6.17	26.4	5.98	20.3	24.4	20.1	26.5	–	–
COc1cccc(NC(=O)CC(=O)n2nc(-c3ccccc3)c(N=Nc3ccc(Cl)cc3)c2-c2ccccc2)c1	67	> 75	> 81.9	45.3	> 100	> 100	> 74.8	89.1	> 86.9	30.8	–	–
CC/C=C/c1cc2c(cc1O)CCC1C2CC[C@@]2(C)C1CC[C@@H]2O (some centres not stated)	14.3	26	15	10.1	11.6	6.46	2.59	6.29	8.14	18.3	–	0.645
COC(=O)/C=C\n1nc(Br)c(=O)[nH]c1=O	–	> 100	> 100	> 100	> 100	> 100	> 100	> 100	> 100	> 100	–	–
COC(=O)CCC(=O)NC1=C(Nc2ccccc2)C(=O)c2ccccc2C1=O	23	31.7	32.5	10.4	65.2	52.3	29.1	16.4	33.2	32.2	–	–
CC(=O)CC(=O)N1CCSC1=S	> 10	> 10	> 10	> 10	> 10	> 10	> 10	> 10	> 10	> 10	–	–
CCOC(=O)c1cc2c3c(c(C(C)=O)c(OC)c2[nH]1)N(C(=O)CC)CC3	30.9	28.9	26.3	40.4	72.7	26.2	41.7	48.3	57.1	27	–	–
O=Nc1c(-c2c(O)[nH]c3ccc(I)cc23)[nH]c2ccccc12	–	> 27.7	–	> 19.9	> 27.9	4.67	81.5	4.93	20.7	5.43	–	–
